Legend:
Type in all cases: functional
Pseudomonas putida = experiment: Antibacterial activity against Pseudomonas putida NBRC 14164 by agar-dilution method
Bacillus subtilis = experiment: Antibacterial activity against Bacillus subtilis 168 by agar-dilution method; details: subsp. subtilis str. 168
Staphylococcus aureus = experiment: Antibacterial activity against Staphylococcus aureus subsp. aureus NBRC 15035 by agar-dilution method
Escherichia coli = experiment: Antibacterial activity against Escherichia coli MG1655 by agar-dilution method; details: K-12 substr. MG1655

Row | MIC (Pseudomonas putida) | MIC (Bacillus subtilis) | MIC (Staphylococcus aureus) | MIC (Escherichia coli) | Structure (SMILES)
1 | 100 µg/mL | 1.56 µg/mL | 0.39 µg/mL | 100 µg/mL | C[Si](C)(C)CCCCn1cc[n+](-c2ccc(-c3ccccc3)cc2)c1.[I-]
2 | 100 µg/mL | 1.56 µg/mL | 3.13 µg/mL | 50 µg/mL | CCCCCC#CC[n+]1ccn(CCCC[Si](C)(C)C)c1.[I-]
3 | 100 µg/mL | 0.39 µg/mL | 0.39 µg/mL | 50 µg/mL | CCCCCc1ccc(-[n+]2ccn(CCCC[Si](C)(C)C)c2)cc1.[I-]
4 | > 100 µg/mL | 0.39 µg/mL | 0.78 µg/mL | 100 µg/mL | CCCCCC#CC[n+]1ccn(CCCCCCCCC[Si](C)(C)C)c1.[I-]
5 | 100 µg/mL | 0.39 µg/mL | 0.39 µg/mL | 12.5 µg/mL | CCCCCC#CC[n+]1ccn(CCCCCCC[Si](C)(C)C)c1C.[I-]
6 | 100 µg/mL | 0.39 µg/mL | 0.39 µg/mL | > 100 µg/mL | C[Si](C)(C)CCCCn1cc[n+](Cc2ccc(CC[Si](C)(C)C)cc2)c1.[I-]
7 | 100 µg/mL | 0.39 µg/mL | 0.78 µg/mL | 25 µg/mL | CCCCCC#CC[n+]1ccn(CCCCCCC[Si](C)(C)C)c1.[I-]
8 | > 100 µg/mL | 0.78 µg/mL | 0.78 µg/mL | > 100 µg/mL | C[Si](C)(C)CCCCCn1cc[n+](Cc2ccc(CC[Si](C)(C)C)cc2)c1.[I-]
9 | > 100 µg/mL | 6.25 µg/mL | > 6.25 µg/mL | > 100 µg/mL | C[Si](C)(C)CCCCCCCCCn1cc[n+](Cc2ccc(CC[Si](C)(C)C)cc2)c1.[I-]
10 | > 100 µg/mL | 1.56 µg/mL | 3.13 µg/mL | 50 µg/mL | CCCCCCCC[n+]1ccn(CCCC[Si](C)(C)C)c1.[I-]
11 | > 100 µg/mL | 1.56 µg/mL | 1.56 µg/mL | > 100 µg/mL | C[Si](C)(C)CCCCCCCn1cc[n+](Cc2ccc(CC[Si](C)(C)C)cc2)c1.[I-]
12 | > 100 µg/mL | > 100 µg/mL | 100 µg/mL | > 100 µg/mL | C#CC[n+]1ccn(CCCC[Si](C)(C)C)c1.[I-]
13 | 100 µg/mL | 0.39 µg/mL | 0.78 µg/mL | 25 µg/mL | CCCCCC#CC[n+]1ccn(CCCCC[Si](C)(C)C)c1.[I-]
14 | > 100 µg/mL | 1.56 µg/mL | 1.56 µg/mL | > 100 µg/mL | C[Si](C)(C)CCCCCCn1cc[n+](Cc2ccc(CC[Si](C)(C)C)cc2)c1.[I-]

Continued, compound first:

Row | Structure (SMILES) | MIC (Pseudomonas putida) | MIC (Bacillus subtilis) | MIC (Staphylococcus aureus) | MIC (Escherichia coli)
15 | CCCCCC#CC[n+]1ccn(CCCCCCCCCCC[Si](C)(C)C)c1C.[I-] | > 100 µg/mL | 1.56 µg/mL | 1.56 µg/mL | > 100 µg/mL
16 | CCCCCC#CC[n+]1ccn(CCCCCC[Si](C)(C)C)c1C.[I-] | 50 µg/mL | 0.39 µg/mL | 0.39 µg/mL | 12.5 µg/mL
17 | CCCCCC#CC[N+]1(CCCCC[Si](C)(C)C)CCCC1.[I-] | > 50 µg/mL | 1.56 µg/mL | 1.56 µg/mL | > 50 µg/mL
18 | CCCCCC#CC[n+]1ccn(CCCCCCCCCCC)c1C.[I-] | 50 µg/mL | 0.39 µg/mL | 0.39 µg/mL | 3.13 µg/mL
19 | CCCCCC#CC[n+]1ccn(CCCCCCCCCC)c1C.[I-] | 50 µg/mL | 0.78 µg/mL | 0.39 µg/mL | 3.13 µg/mL
20 | CCCCCC#CC[n+]1ccn(CCCCCCCCCCCC)c1.[I-] | 50 µg/mL | 0.39 µg/mL | 0.39 µg/mL | 25 µg/mL
21 | CCCCCC#CC[n+]1ccn(CCCC[Si](C)(C)C)c1C.[I-] | 100 µg/mL | 1.56 µg/mL | 1.56 µg/mL | 50 µg/mL
22 | CCCCCCCCCCCCCCCC[n+]1ccn(Cc2ccccc2)c1C.[I-] | – | 1.56 µg/mL | – | 3.13 µg/mL
23 | CCCCCC#CC[n+]1ccn(CCCCCCCCCCCC)c1C.[I-] | 50 µg/mL | 0.39 µg/mL | 0.39 µg/mL | 6.25 µg/mL
24 | CCCCCC#CC[n+]1ccn(CCCCC[Si](C)(C)C)c1C.[I-] | 50 µg/mL | 0.39 µg/mL | 0.39 µg/mL | 12.5 µg/mL
25 | CCCCCC#CC[n+]1ccn(CCCCCCCCC)c1C.[I-] | 50 µg/mL | 0.78 µg/mL | 0.78 µg/mL | 12.5 µg/mL
26 | CCCCCC#CC[N+]1(CCCCC[Si](C)(C)C)CCCCC1.[I-] | 100 µg/mL | 1.56 µg/mL | 1.56 µg/mL | 50 µg/mL
27 | CCCCCC#CC[N+]1(C)CCCC1.[I-] | > 50 µg/mL | > 50 µg/mL | > 50 µg/mL | > 50 µg/mL
28 | CCCCCC#CC[n+]1ccn(CCCCCCCCCCCCCC)c1C.[I-] | > 100 µg/mL | 0.78 µg/mL | 0.78 µg/mL | 100 µg/mL
29 | CCCCCC#CC[n+]1ccn(CCCCCCCCCCCCCCCC)c1C.[I-] | > 100 µg/mL | 1.56 µg/mL | 1.56 µg/mL | > 100 µg/mL
30 | CCCCCC#CC[N+]1(C)CCCCC1.[I-] | > 50 µg/mL | > 50 µg/mL | > 50 µg/mL | > 50 µg/mL
31 | CCCCCC#CC[n+]1ccn(CCCCCCCCC[Si](C)(C)C)c1C.[I-] | 100 µg/mL | 0.39 µg/mL | 0.78 µg/mL | 100 µg/mL
